Consider eleven compounds from US20260297081A1, “COMPOUNDS AND METHODS OF TREATING CANCERS” (Cullgen Inc., priority 2023, published 2026).

The subject of assay [1] is MCF7 cells. Nature of the assay: Anti-proliferation (viability) of MCF7 cells (Table 7, FIG. 2B). The following applies: Homo sapiens, MCF7, MCF7 cells, 3-6 days, 10-point serial dilution; read-out: GI IC50 in MCF-7. The format is cell-based.
Assay [2] deals with CDK4 (Homo sapiens, UniProt P11802+Q16531). Kind of assay: HiBiT detection of HiBiT-tagged CDK4 protein level in MCF7 cells, 16 hours (Table 8). The format is cell-based. The arrangement: expressed in transfected cells; host or cells: MCF7. The following applies: MCF7 cells stably expressing HiBiT tagged target proteins; for activity at 0.01 µM: 10 nM, read-out: % CDK4 Relative Level (10 nM); for activity at 0.1 µM: 100 nM, read-out: % CDK4 Relative Level (100 nM). As for the experimental part: HiBiT detection system quantitatively measures total amounts of HiBiT-tagged proteins using a luminescent based method. MCF7 cells stably expressing HiBiT tagged target proteins were treated with heterobifunctional compounds at indicated concentrations for 16 hours, then lysed with Nano-Glo HiBiT Lytic detection reagents.
(HiBiT is a short tag that completes a luciferase, so light tracks the accessible tagged protein.)

SMILES strings stand for the structures. pIC50: −log10 of the molar value.

Sequence of CDK4 (P11802 whole entry): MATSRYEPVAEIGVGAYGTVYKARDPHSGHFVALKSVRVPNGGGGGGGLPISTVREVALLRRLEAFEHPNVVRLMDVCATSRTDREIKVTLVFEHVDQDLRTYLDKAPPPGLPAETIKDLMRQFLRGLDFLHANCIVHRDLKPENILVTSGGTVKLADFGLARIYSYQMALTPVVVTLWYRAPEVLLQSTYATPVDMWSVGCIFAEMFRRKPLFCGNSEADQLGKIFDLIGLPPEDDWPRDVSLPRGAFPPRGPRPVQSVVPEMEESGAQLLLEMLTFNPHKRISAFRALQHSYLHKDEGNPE
Sequence of CDK4 (P24385 whole entry partner): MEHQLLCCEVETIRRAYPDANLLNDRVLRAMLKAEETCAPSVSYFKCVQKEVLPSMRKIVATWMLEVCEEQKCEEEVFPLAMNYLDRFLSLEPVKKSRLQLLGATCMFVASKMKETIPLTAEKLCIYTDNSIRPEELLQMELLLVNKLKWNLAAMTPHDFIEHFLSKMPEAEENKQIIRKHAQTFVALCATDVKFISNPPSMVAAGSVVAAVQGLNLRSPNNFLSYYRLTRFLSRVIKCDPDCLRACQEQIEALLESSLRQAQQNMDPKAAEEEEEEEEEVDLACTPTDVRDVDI
Sequence of CDK4 (Q16531 2-1140 limits assumed): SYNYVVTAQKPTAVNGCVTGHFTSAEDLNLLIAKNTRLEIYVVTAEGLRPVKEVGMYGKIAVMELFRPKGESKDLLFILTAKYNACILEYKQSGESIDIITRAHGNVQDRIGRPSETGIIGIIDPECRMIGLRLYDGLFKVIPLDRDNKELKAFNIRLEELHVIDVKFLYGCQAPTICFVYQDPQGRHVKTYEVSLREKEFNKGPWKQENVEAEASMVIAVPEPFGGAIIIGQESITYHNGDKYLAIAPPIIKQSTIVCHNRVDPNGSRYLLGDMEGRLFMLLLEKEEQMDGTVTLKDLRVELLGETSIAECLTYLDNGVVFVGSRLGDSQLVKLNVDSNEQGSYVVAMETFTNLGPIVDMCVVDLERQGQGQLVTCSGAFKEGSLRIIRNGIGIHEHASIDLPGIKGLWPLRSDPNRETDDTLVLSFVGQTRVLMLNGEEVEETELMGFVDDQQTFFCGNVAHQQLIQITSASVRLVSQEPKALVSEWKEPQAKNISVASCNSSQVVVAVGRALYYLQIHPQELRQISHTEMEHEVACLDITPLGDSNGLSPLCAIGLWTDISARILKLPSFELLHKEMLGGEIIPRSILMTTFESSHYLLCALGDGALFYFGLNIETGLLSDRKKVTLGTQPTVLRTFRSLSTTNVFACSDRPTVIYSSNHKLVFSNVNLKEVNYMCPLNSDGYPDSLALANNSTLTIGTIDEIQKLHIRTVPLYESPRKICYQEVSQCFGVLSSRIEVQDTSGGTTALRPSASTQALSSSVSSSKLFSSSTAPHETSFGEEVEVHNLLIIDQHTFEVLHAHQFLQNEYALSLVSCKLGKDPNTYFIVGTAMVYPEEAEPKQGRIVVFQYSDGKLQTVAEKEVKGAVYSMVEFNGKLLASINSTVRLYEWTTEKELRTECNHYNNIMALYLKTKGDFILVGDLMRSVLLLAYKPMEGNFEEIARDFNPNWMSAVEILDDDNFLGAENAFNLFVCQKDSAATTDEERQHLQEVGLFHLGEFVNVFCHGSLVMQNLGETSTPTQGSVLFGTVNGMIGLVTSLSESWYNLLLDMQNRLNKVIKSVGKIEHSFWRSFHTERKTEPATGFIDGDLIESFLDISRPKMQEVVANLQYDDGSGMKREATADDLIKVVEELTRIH

As to `CNc1ccc(C(=O)Nc2ccc(N(C)C)nn2)c(NCCCCNC(=O)CN2CCN(c3ccc(Nc4ncc5cc6n(c5n4)C4(CCCCC4)CNC6=O)nc3)CC2)n1` [CPD-642, N-(6-(dimethylamino)pyridazin-3-yl)-6-(methylamino)-2-((4-(2-(4-(6-((6′-oxo-7′,8′-dihydro-6′H-spiro[cyclohexane-1,9′-pyrazino[1′,2′:1,5]pyrrolo[2,3-d]pyrimidin]-2′-yl)amino)pyridin-3-yl)piperazin-1-yl)acetamido)butyl)amino)nicotinamide], the pIC50 in assay [1] was less than 7.00. Besides, in assay [2], the activity at 0.01 µM fell in the range of 55 to 85% and the activity at 0.1 µM lay within 55 to 85%.
Take `CNc1ccc(C(=O)Nc2ccc(N(C)C)nn2)c(NCCCCCNC(=O)CN2CCN(c3ccc(Nc4ncc5cc(C(=O)N(C)C)n(C6CCCC6)c5n4)nc3)CC2)n1` [CPD-627, 7-cyclopentyl-2-((5-(4-(2-((5-((3-((6-(dimethylamino)pyridazin-3-yl)carbamoyl)-6-(methylamino)pyridin-2-yl)amino)pentyl)amino)-2-oxoethyl)piperazin-1-yl)pyridin-2-yl)amino)-N,N-dimethyl-7H-pyrrolo[2,3-d]pyrimidine-6-carboxamide]: the pIC50 in assay [1] was less than 7.00. Besides, in assay [2], the activity at 0.01 µM fell in the range of 55 to 85% and the activity at 0.1 µM lay within 55 to 85%.
With `CCc1ccc(C(=O)Nc2ccc(N(C)C)nn2)c(NC2CCC3(CCN(C(=O)CN4CCN(Cc5ccc(Nc6ncc7c(C)c(C(C)=O)c(=O)n(C8CCCC8)c7n6)nc5)CC4)C3)C2)n1` (stereo not drawn) [CPD-582, 2-((2-(2-(4-((6-((6-acetyl-8-cyclopentyl-5-methyl-7-oxo-7,8-dihydropyrido[2,3-d]pyrimidin-2-yl)amino)pyridin-3-yl)methyl)piperazin-1-yl)acetyl)-2-azaspiro[4.4]nonan-7-yl)amino)-N-(6-(dimethylamino)pyridazin-3-yl)-6-ethylnicotinamide], in assay [1], the pIC50 was more than 7.30. Also, in assay [2], the activity at 0.01 µM was 55 to 85% and the activity at 0.1 µM lay in the range of 55 to 85%.
`CNc1ccc(C(=O)Nc2ccc(N(C)C)nn2)c(NCCCC(=O)N2CCN(c3ccc(Nc4ncc5cc6n(c5n4)C4(CCCCC4)CNC6=O)nc3)CC2)n1` [CPD-633, N-(6-(dimethylamino)pyridazin-3-yl)-6-(methylamino)-2-((4-oxo-4-(4-(6-((6′-oxo-7′,8′-dihydro-6′H-spiro[cyclohexane-1,9′-pyrazino[1′,2′:1,5]pyrrolo[2,3-d]pyrimidin]-2′-yl)amnion)pyridin-3-yl)piperazin-1-yl)butyl)amino)nicotinamide]: the pIC50 in assay [1] is less than 7.00. Also, in assay [2], the activity at 0.01 µM was 55 to 85% and the activity at 0.1 µM was more than 85%.
The like results for `CNc1ccc(C(=O)Nc2ccc(N(C)C)nn2)c(NCCCCCC(=O)N2CCN(c3ccc(Nc4ncc5cc6n(c5n4)C4(CCCCC4)CNC6=O)nc3)CC2)n1` [CPD-635, N-(6-(dimethylamino)pyridazin-3-yl)-6-(methylamino)-2-((6-oxo-6-(4-(6-((6′-oxo-7′,8′-dihydro-6′H-spiro[cyclohexane-1,9′-pyrazino[1′,2′:1,5]pyrrolo[2,3-d]pyrimidin]-2′-yl)amino)pyridin-3-yl)piperazin-1-yl)hexyl)amino)nicotinamide] were, in that order, less than 7.00, 55 to 85% and 55 to 85%.
Take `CNc1ccc(C(=O)Nc2ccc(N(C)C)nn2)c(NCCCCCNC(=O)CN2CCN(c3ccc(Nc4ncc5cc6n(c5n4)C4(CCCCC4)CNC6=O)nc3)CC2)n1` [CPD-643]: in assay [1], the pIC50 is less than 7.00. Also, in assay [2], the activity at 0.01 µM is more than 85% and the activity at 0.1 µM fell in the range of 55 to 85%.
The like results for `CC(=O)c1c(C)c2cnc(Nc3ccc(CN4CCN(CC(=O)N5CC6(CC(Nc7nc(NC(C)C)ccc7C(=O)Nc7ccc(N(C)C)nn7)C6)C5)CC4)cn3)nc2n(C2CCCC2)c1=O` [CPD-422, 2-((2-(2-(4-((6-((6-acetyl-8-cyclopentyl-5-methyl-7-oxo-7,8-dihydropyrido[2,3-d]pyrimidin-2-yl)amino)pyridin-3-yl)methyl)piperazin-1-yl)acetyl)-2-azaspiro[3.3]heptan-6-yl)amino)-N-(6-(dimethylamino)pyridazin-3-yl)-6-(isopropylamino)nicotinamide] were, in that order, more than 7.30, more than 85% and 55 to 85%.
The like results for `CC(=O)c1c(C)c2cnc(Nc3ccc(CN4CCN(CC(=O)N(C)C5CC6(CC(Nc7nc(NC(C)C)ccc7C(=O)Nc7ccc(N(C)C)nn7)C6)C5)CC4)cn3)nc2n(C2CCCC2)c1=O` (stereo not drawn) [CPD-594, 2-((6-(2-(4-((6-((6-acetyl-8-cyclopentyl-5-methyl-7-oxo-7,8-dihydropyrido[2,3-d]pyrimidin-2-yl)amino)pyridin-3-yl)methyl)piperazin-1-yl)-N-methylacetamido)spiro[3.3]heptan-2-yl)amino)-N-(6-(dimethylamino)pyridazin-3-yl)-6-(isopropylamino)nicotinamide] were, in that order, more than 7.30, 55 to 85% and 55 to 85%.
As to `CC(=O)c1c(C)c2cnc(Nc3ccc(CN4CCN(CC(=O)N5CCC6(CCC(Nc7nc(C(C)C)ccc7C(=O)Nc7ccc(N(C)C)nn7)C6)C5)CC4)cn3)nc2n(C2CCCC2)c1=O` (stereo not drawn) [CPD-583, 2-((2-(2-(4-((6-((6-acetyl-8-cyclopentyl-5-methyl-7-oxo-7,8-dihydropyrido[2,3-d]pyrimidin-2-yl)amino)pyridin-3-yl)methyl)piperazin-1-yl)acetyl)-2-azaspiro[4.4]nonan-7-yl)amino)-N-(6-(dimethylamino)pyridazin-3-yl)-6-isopropylnicotinamide], the pIC50 in assay [1] is more than 7.30. In addition, in assay [2], the activity at 0.01 µM was 55 to 85% and the activity at 0.1 µM lay within 55 to 85%.
Turning to `CNc1ccc(C(=O)Nc2ccc(N(C)C)nn2)c(NCCCCC(=O)N2CCN(Cc3ccc(Nc4ncc(F)c(-c5cc(F)c6nc(C)n(C(C)C)c6c5)n4)nc3)CC2)n1` [CPD-602, N-(6-(dimethylamino)pyridazin-3-yl)-2-((5-(4-((6-((5-fluoro-4-(4-fluoro-1-isopropyl-2-methyl-1H-benzo[d]imidazol-6-yl)pyrimidin-2-yl)amino)pyridin-3-yl)methyl)piperazin-1-yl)-5-oxopentyl)amino)-6-(methylamino)nicotinamide], the pIC50 in assay [1] was less than 7.00. Also, in assay [2], the activity at 0.01 µM was in the range of 55 to 85% and the activity at 0.1 µM is 55 to 85%.
For `CC(=O)c1c(C)c2cnc(Nc3ccc(N4CCN(C5CCN(C(=O)C67CC(Nc8nc(NC(C)C)ccc8C(=O)Nc8cn(C)c(C9CC9)n8)(C6)C7)C5)CC4)cn3)nc2n(C2CCCC2)c1=O` (stereo not drawn) [CPD-588, 2-((3-(3-(4-(6-((6-acetyl-8-cyclopentyl-5-methyl-7-oxo-7,8-dihydropyrido[2,3-d]pyrimidin-2-yl)amino)pyridin-3-yl)piperazin-1-yl)pyrrolidine-1-carbonyl)bicyclo[1.1.1]pentan-1-yl)amino)-N-(2-cyclopropyl-1-methyl-1H-imidazol-4-yl)-6-(isopropylamino)nicotinamide], the pIC50 in assay [1] was more than 7.30. For the same compound, in assay [2], the activity at 0.01 µM fell in the range of 55 to 85% and the activity at 0.1 µM lay within 55 to 85%.

Usually pIC50 stands for the negative decadic logarithm of the IC50, by convention in mol/L.
